Laboratory results reported in patent US20070010466A1 (priority 2005, published 2007).
“Also recorded” adds a separate entry of the source.

Tests used:
[1] = clinical trials; cited from earlier work
[2] = preclinical models, several oncolytics; cited from earlier work
[3] = biological target: T1, P-gp function on circulating natural killer (NK) cells and leukemic blasts (Homo sapiens, UniProt P08183); experiment: cellular P-gp function, DiOC2 accumulation assay with flow cytometry, in AML patients; format: in vivo
T1 construct: Pharmacodynamic assessments of cellular P-gp function were conducted using an accumulation assay with DiOC2 and flow cytometry; endogenous in cells; host or cells: circulating NK cells and leukemic blasts from AML patients
Experimental: Cytarabine was also administered (100 mg/m^2/day) starting after the first dose of daunorubicin as a continuous intravenous infusion on days 1-7. Blood samples were taken at intervals for pharmacokinetic and pharmacodynamic studies. Pharmacokinetic drug determinations were conducted by HPLC. Pharmacodynamic assessments of cellular P-gp function were conducted using an accumulation assay with DiOC2 and flow cytometry. P-gp function was assessed on circulating natural killer (NK) cells and leukemic blasts. […] Means of 3 patients for each time point are shown.

T1 sequence (P08183 whole entry): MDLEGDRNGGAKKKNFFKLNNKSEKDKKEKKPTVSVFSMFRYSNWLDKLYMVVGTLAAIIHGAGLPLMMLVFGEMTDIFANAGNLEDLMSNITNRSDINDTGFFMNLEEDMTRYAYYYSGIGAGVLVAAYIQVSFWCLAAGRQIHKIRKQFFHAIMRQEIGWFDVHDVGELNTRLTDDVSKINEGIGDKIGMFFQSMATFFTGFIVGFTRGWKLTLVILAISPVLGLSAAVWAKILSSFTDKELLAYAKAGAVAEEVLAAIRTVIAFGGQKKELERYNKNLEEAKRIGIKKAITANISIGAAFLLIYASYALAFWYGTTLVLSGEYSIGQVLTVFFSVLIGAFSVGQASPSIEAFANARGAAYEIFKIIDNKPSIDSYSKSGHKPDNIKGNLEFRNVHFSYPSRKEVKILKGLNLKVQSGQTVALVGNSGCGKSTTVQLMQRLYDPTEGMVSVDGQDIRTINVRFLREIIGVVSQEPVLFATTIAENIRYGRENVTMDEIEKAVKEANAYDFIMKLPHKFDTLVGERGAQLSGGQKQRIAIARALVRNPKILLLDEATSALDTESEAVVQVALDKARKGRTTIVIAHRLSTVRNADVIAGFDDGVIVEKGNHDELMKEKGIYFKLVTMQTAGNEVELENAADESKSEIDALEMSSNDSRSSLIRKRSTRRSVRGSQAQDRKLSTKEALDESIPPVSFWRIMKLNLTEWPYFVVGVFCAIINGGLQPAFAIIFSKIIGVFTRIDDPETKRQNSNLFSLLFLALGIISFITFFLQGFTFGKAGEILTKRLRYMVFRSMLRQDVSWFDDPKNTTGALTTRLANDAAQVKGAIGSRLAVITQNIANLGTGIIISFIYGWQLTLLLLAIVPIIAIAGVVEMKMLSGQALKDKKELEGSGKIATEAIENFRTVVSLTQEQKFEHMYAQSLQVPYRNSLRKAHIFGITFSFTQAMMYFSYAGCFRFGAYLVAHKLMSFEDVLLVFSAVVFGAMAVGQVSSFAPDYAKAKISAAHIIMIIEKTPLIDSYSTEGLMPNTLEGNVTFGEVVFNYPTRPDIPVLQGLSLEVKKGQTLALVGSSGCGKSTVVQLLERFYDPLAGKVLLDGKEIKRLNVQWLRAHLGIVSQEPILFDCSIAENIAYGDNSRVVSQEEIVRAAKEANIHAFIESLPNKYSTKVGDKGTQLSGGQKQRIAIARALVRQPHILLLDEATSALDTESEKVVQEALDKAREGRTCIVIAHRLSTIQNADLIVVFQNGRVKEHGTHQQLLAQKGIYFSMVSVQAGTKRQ

Row | SMILES | pharmacokinetic interaction with coadministered cytotoxic agents [1] | pharmacokinetic interaction with co-administered chemotherapy [2] | continued inhibition of P-gp functional activity after infusion was halted ([3]; after 72 hour infusion) | time to potent inhibition of P-gp function after start of infusion ([3]; both NK cells and leukemic blasts, 700 mg/day continuous iv infusion)
1 | C/C=C/C[C@@H](C)C(=O)[C@H]1C(=O)N[C@@H](C(C)C)C(=O)N(C)CC(=O)N(C)[C@@H](CC(C)C)C(=O)N[C@@H](C(C)C)C(=O)N(C)[C@@H](CC(C)C)C(=O)N[C@@H](C)C(=O)N[C@H](C)C(=O)N(C)[C@@H](CC(C)C)C(=O)N(C)[C@@H](CC(C)C)C(=O)N(C)[C@@H](C(C)C)C(=O)N1C [valspodar] | significant pharmacokinetic interactions |  |  | 
2 | O[C@@H](COc1cccc2ncccc12)CN1CCN([C@@H]2c3ccccc3[C@@H]3[C@H](c4ccccc42)C3(F)F)CC1 [zosuquidar] |  | no pharmacokinetic interaction; also recorded: minimal pharmacokinetic (PK) interactions | at least 12 hours | ≤ 2 h
